The values below come from patent publication US20100137313A1 (ASTRAZENECA AB, priority 2008, published 2010).

Molecules are shown by their SMILES.

This assay deals with S. pneumoniae Topoisomerase IV ATPase (ParE) (Streptococcus pneumoniae serotype 4, UniProt Q59961). As to the kind of experiment: S. pneumoniae Topoisomerase IV ATPase inhibition. Format: biochemical. To be noted: values marked * are an average of two or more data points, read-out: % Inh (13 μM) of S. pneumoniae Topoisomerase IV ATPase. The method in brief: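 S. pneumoniae ParE (1.25 nM) ATPase with 160 μM ATP and 5 μg/ml sheared DNA in pH 8.0 Tris, Mg2+, DTT, Brij-35; phosphate detected by malachite green/molybdate at 650 nm. Normalised to 2% DMSO (0%) and 20 μM EDTA (100%); IC50 from 10 concentrations.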
Chain of S. pneumoniae Topoisomerase IV ATPase (ParE) (Q59961 whole entry): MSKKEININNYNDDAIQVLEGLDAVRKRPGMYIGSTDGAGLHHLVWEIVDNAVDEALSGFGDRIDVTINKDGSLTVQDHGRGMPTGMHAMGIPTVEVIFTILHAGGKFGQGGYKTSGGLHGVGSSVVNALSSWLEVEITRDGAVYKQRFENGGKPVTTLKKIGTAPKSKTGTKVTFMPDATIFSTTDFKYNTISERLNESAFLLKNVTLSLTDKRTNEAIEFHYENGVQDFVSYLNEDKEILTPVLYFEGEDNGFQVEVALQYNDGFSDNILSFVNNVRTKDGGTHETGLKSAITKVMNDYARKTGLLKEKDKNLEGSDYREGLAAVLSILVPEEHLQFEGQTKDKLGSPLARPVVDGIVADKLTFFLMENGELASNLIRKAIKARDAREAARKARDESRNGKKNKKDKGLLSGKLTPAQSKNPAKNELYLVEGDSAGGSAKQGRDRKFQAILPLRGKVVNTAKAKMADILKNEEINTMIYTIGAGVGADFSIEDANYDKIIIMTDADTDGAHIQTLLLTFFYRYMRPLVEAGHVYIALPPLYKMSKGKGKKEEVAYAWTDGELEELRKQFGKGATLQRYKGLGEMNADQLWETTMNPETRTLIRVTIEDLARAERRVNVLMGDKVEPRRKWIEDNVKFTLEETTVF
With `Cc1cc(C(F)(F)F)nn1-c1nc(Nc2ccc(F)c(Cl)c2)ncc1-c1cnc(OCCN2CCN(C)CC2)c(C(=O)O)c1` [Example 963, 5-(2-(3-chloro-4-fluorophenylamino)-4-(5-methyl-3-(trifluoromethyl)-1H-pyrazol-1-yl)pyrimidin-5-yl)-2-(2-(4-methylpiperazin-1-yl)ethoxy)nicotinic acid], the inhibition at 13 µM is 100%.
The figure for `COc1cc(Nc2ncc(-c3cccc(/C=C/C(=O)O)c3)c(N[C@@H]3CCOC3)n2)cc(OC)c1` [Example 357, (R,E)-3-(3-(2-(3,5-dimethoxyphenylamino)-4-(tetrahydrofuran-3-ylamino)pyrimidin-5-yl)phenyl)acrylic acid] is 85.3%; for `CS(=O)(=O)NCCCNc1nc(Nc2ccc(F)c(Cl)c2)ncc1-c1cncnc1` [Ex 378, N-(3-(2-(3-chloro-4-fluorophenylamino)-5,5′-bipyrimidin-4-ylamino)propyl) methanesulfonamide] it is 75.2%.
Take `N#Cc1cc(-c2cnc(Nc3ccc(F)c(Cl)c3)nc2-n2ccc(C(F)(F)F)n2)ccn1` [Example 890, 4-(2-(3-chloro-4-fluorophenylamino)-4-(3-(trifluoromethyl)-1H-pyrazol-1-yl)pyrimidin-5-yl)picolinonitrile]: the inhibition at 13 µM is 91%.
On to `COc1cc(Nc2ncc(-c3cnc(OCCCS(C)(=O)=O)c(C(=O)O)c3)c(-n3ccc(C(F)(F)F)n3)n2)cc(OC)c1` [Example 968, 5-(2-(3,5-dimethoxyphenylamino)-4-(3-(trifluoromethyl)-1H-pyrazol-1-yl)pyrimidin-5-yl)-2-(3-(mehtylsulfonyl)propoxy)nicotinic acid], for which the inhibition at 13 µM came to 94%.
The figure for `CCOC(=O)/C=C/c1cccc(-c2cnc(Nc3ccc(F)c(Cl)c3)nc2N2CCOCC2)c1` [Example 166, (E)-ethyl 3-(3-(2-(3-chloro-4-fluorophenylamino)-4-morpholinopyrimidin-5-yl)phenyl)acrylate] is 37.4%.
For the compound `COc1cc(C)cc(Nc2ncc(-c3cncc(C(=O)O)c3)c(-n3ccc(C(F)(F)F)n3)n2)c1` [Example 776, 5-{2-[(3-methoxy-5-methylphenyl)amino]-4-[3-(trifluoromethyl)-1H-pyrazol-1-yl]pyrimidin-5-yl}pyridine-3-carboxylic acid], the inhibition at 13 µM amounted to 100%.
On to `O=C(O)c1cncc(-c2cnc(Nc3ccc4c(c3)OCO4)nc2-n2ccc(C(F)(F)F)n2)c1` [Example 670, 5-{2-(1,3-benzodioxol-5-ylamino)-4-[3-(trifluoromethyl)-1H-pyrazol-1-yl]pyrimidin-5-yl}pyridine-3-carboxylic acid], for which the inhibition at 13 µM stood at 100%.
Then `COc1cc(C)cc(Nc2ncc(-c3cncc(C(=O)O)c3)c(-n3nc(C(F)(F)F)cc3C)n2)c1` [Example 777, 5-{2-[(3-methoxy-5-methylphenyl)amino]-4-[5-methyl-3-(trifluoromethyl)-1H-pyrazol-1-yl]pyrimidin-5-yl}pyridine-3-carboxylic acid], with 100%; and `CC(=O)NC1CCN(c2nc(Nc3ccc(F)c(Cl)c3)ncc2-c2cncnc2)CC1` [Example 69, N-[1-[2-[(3-chloro-4-fluorophenyl)amino]-5-pyrimidin-5-ylpyrimidin-4-yl]piperidin-4-yl]acetamide], with 77%; and `COc1cc(Nc2ncc(-c3cncc(C(=O)O)c3)c(-n3nc(C)cc3C(F)F)n2)cc(OC)c1` [Example 1127, 5-(4-(5-(difluoromethyl)-3-methyl-1H-pyrazol-1-yl)-2-(3,5-dimethoxyphenylamino)pyrimidin-5-yl)nicotinic acid], with 100%.
Then `O=C(O)c1cc(-c2cnc(Nc3ccc(F)c(Cl)c3)nc2N2CCOCC2)cc([N+](=O)[O-])c1` [Example 490, 3-{2-[(3-chloro-4-fluorophenyl)amino]-4-(morpholin-4-yl)pyrimidin-5-yl}-5-nitrobenzoic acid], with 100%.
`O=C(O)/C=C/c1cccc(-c2cnc(Nc3ccc(F)c(Cl)c3)nc2N2CCOC(CO)C2)c1` (centres unmarked) [Example 1059]: the inhibition at 13 µM is 85%.
`O=C(O)/C=C/c1cccc(-c2cnc(Nc3ccc(F)c(Cl)c3)nc2N[C@H]2CCOC2)c1` [Example 942, (S, E)-3-(3-(2-(3-chloro-4-fluorophenylamino)-4-(tetrahydrofuran-3-ylamino)pyrimidin-5-yl)phenyl)acrylic acid]: the inhibition at 13 µM was found to be 100%.
The figure for `O=C(O)C1CCN(c2cccc(-c3cnc(Nc4ccc(F)c(Cl)c4)nc3-n3ccc(C(F)(F)F)n3)c2)C1` (centres unmarked) [Example 604, 1-(3-{2-[(3-chloro-4-fluorophenyl)amino]-4-[3-(trifluoromethyl)-1H-pyrazol-1-yl]pyrimidin-5-yl}phenyl)pyrrolidine-3-carboxylic acid] is 100%; for `CN1CCN(CCNc2nc(Nc3ccc(F)c(Cl)c3)ncc2-c2cncc(C(=O)O)c2)CC1` [Example 263, 5-(2-[(3-chloro-4-fluorophenyl)amino]-4-{[2-(4-methylpiperazin-1-yl)ethyl]amino}pyrimidin-5-yl)pyridine-3-carboxylate acid] it is 86.2%; for `CONC(=O)c1cccc(-c2cnc(Nc3ccc(F)c(Cl)c3)nc2NCCCN(C)C)c1` [Example 360, 3-(2-(3-chloro-4-fluorophenylamino)-4-(3-(dimethylamino)propylamino)pyrimidin-5-yl)-N-methoxybenzamide] it is 112%.
With `CCOC(=O)c1cncc(-c2cnc(Nc3ccc(F)c(Cl)c3)nc2NCc2cnn(C)c2)c1` [Example 148, ethyl 5-(2-(3-chloro-4-fluorophenylamino)-4-((1-methyl-1H-pyrazol-4-yl)methylamino)pyrimidin-5-yl)-nicotinate], the inhibition at 13 µM worked out at 120%.
In the case of `CCC1COC(C)CN1c1nc(Nc2ccc(F)c(Cl)c2)ncc1-c1cccc(/C=C/C(=O)O)c1` (centres unmarked) [Example 1056, (E)-3-(3-(2-(3-chloro-4-fluorophenylamino)-4-(5-ethyl-2-methylmorpholino)pyrimidin-5-yl)phenyl)acrylic acid], the inhibition at 13 µM was 85%.
Then `COc1ncc(-c2cnc(Nc3ccc(F)c(Cl)c3)nc2-n2nc(C(F)(F)F)cc2C)cc1C(=O)NS(C)(=O)=O` [Example 1025, 5-(2-(3-Chloro-4-fluorophenylamino)-4-(5-methyl-3-(trifluoromethyl)-1H-pyrazol-1-yl)pyrimidin-5-yl)-2-methoxy-N-(methylsulfonyl)nicotinamide], with 98%.
Then `O=C(O)c1cncc(-c2cnc(Nc3ccc(F)c(Cl)c3)nc2N2CCOCC2)c1` [Example 273, 5-(2-(3-chloro-4-fluorophenylamino)-4-morpholinopyrimidin-5-yl)nicotinic acid], with 94.4%.
Turning to `COc1cc(Nc2ncc(-c3cnc(OC)nc3)c(-n3nc(C(F)(F)F)cc3C)n2)cc(C(F)(F)F)c1` [Example 885, 2′-methoxy-N-(3-methoxy-5-(trifluoromethyl)phenyl)-4-(5-methyl-3-(trifluoromethyl)-1H-pyrazol-1-yl)-5,5′-bipyrimidin-2-amine], the inhibition at 13 µM is 100%.
For `O=C(O)c1cncc(-c2cnc(Nc3ccc(F)c(Cl)c3)nc2NCCc2ccncc2)c1` [Example 230, 5-[2-(3-Chloro-4-fluoro-phenylamino)-4-(2-pyridin-4-yl-ethylamino)-pyrimidin-5-yl]-nicotinic acid], the inhibition at 13 µM turned out to be 79.6%.
